In the assay the test system is Dok-2 phosphorylation (tyrosine 299). The assay is described as follows: SILAC/MALDI-TOF quantitation of Dok-2 phosphopeptide in CML cells after STI571 treatment. It counts as cell-based. Particulars: human CML cells. How it is done:
SILAC is a also powerful tool for quantifying posttranslational modifications. We examined the change in the level of phosphophorylation of Dok-2 in response to treatment of STI571, an inhibitor of Bcr-Abl kinase, in human chronic myelogenous leukemia cells. As a control, aliquots of heavy tyrosine (U—^13C9) labeled cells (5×10^8) were mixed equally with light tyrosine (^12C) labeled cells (5×10^8) before the drug treatment.
A first aliquot of heavy tyrosine labeled cells (5×10^8) was preincubated with 1 μM of STI571 at 37° C. for 1 h and then mixed with an equal number of light (natural abundance) isotope tyrosine labeled cells. A second aliquot of heavy tyrosine labeled cells (5×10^8) was preincubated with 1 μM of STI571 at 37° C. for 2 h and then also mixed with an equal number of light (natural abundance) isotope tyrosine labeled cells. In both cases, the cell mixtures (1×10^9) were lysed with NP40 lysis buffer and incubated with 30 μg of the GST fusion of the SH2 domain of SHIP1 conjugated to glutathione Sepharose 4B. Affinity captured proteins were then analyzed by SDS-PAGE on a NuPAGE® acrylamide gel (Invitrogen, Carlsbad, Calif.) and stained with SimplyBlue™ SafeStain™ protein gel stain (Invitrogen, Carlsbad, Calif.). The Dok-2 protein bands from each mixed cell sample were excised and digested with trypsin. The resulting tryptic peptides were analyzed by MALDI-TOF.

Structures are written as SMILES.

Consider `Cc1ccc(NC(=O)c2ccc(CN3CCN(C)CC3)cc2)cc1Nc1nccc(-c2cccnc2)n1` [STI571], for which, where the note is “1 μM STI571, 37° C., 1 h”, the “amount of phosphopeptide of Dok2 reduced to (peptide ratio m/z 1688 to m/z 1697)” value was 75%. For the same compound, the “inhibition of heavy labeled Dok-2 phosphopeptide (ratio of isotopic peptide pairs)” value (1 μM STI571, 37° C., 2 h) is reported as “more than 90%”. Besides, the “decrease of phosphorylation level of Dok-2 Tyrosine 299 site” value (STI571 treatment, 1 h) is listed as 75%.

Source of the values: US20070105181A1, “Identification of cancer biomarkers and phosphorylated pdroteins” (Invitrogen Corporation, priority 2005, published 2007).
